{
  "source": "paper PMC7217150",
  "about": "“Synthesis, Modification, and Biological Evaluation of a Library of Novel Water‐Soluble Thiopyridone‐Based Organometallic Complexes and Their Unexpected (Biological) Behavior” (Chemistry (Weinheim an Der Bergstrasse, Germany), 2020)",
  "key": {"A549 [1]": {"test_system": "A549", "assay": "MTT cytotoxicity assay, monolayer culture", "type": "cell-based, human", "conditions": "exposure time 96 h, means ± SDs"}, "CH1/PA‐1 [2]": {"test_system": "CH1/PA‐1", "assay": "MTT cytotoxicity assay, monolayer culture", "type": "cell-based, human", "conditions": "CH1/PA‐1, MTT assay, exposure time 96 h, means ± SDs"}, "SW480 [3]": {"test_system": "SW480", "assay": "MTT cytotoxicity assay, monolayer culture", "type": "cell-based, human"}, "[4]": {"conditions": "pH 7.2", "method": "Stock solutions containing the desired complex in DMSO (5 mM) were diluted with phosphate buffer (pH 7.2) to a final concentration of […] compound in 1 % DMSO/20 mM buffer and directly analyzed by four different isocratic UHPLC runs (Δ=5 %). The lipophilicity parameters logkw and lipophilicity indices φ0 were calculated according to literature.7, 37"}, "A549 [5]": {"test_system": "A549", "conditions": "A549 multicellular spheroids, 96 h drug exposure", "method": "(§1) A549, CH1/PA‐1 and SW480 cells were grown in MEM supplemented with 10 % fetal calf serum (FCS; from Biowest), 1 mM sodium pyruvate, 4 mM L‐glutamine and 1 % v/v nonessential amino acids (from 100×solution) and L‐glutamine. HCT‐116 cells were maintained in McCoy's 5a medium supplemented with 10 % FCS and L‐glutamine. Adherent monolayer cultures were grown in 75 cm^2 flasks. For spheroid culture, A549, CH1/PA‐1 and HCT‐116 cells were harvested from culture flasks by trypsinization, resuspended in their respective supplemented medium and seeded in ultra‐low attachment round‐bottom 96‐well plates (Corning Costar) at a density of 500 viable cells per well. Plates were incubated for 96 h to allow spheroid formation prior to use for the tests. All cultures were incubated in a humidified incubator at 37 °C with 5 % CO2.\n(§2) Cytotoxicity in multicellular spheroids was determined by the fluorimetric resazurin assay. […] After incubation for 96 h, 20 μL of a 440 μM resazurin sodium salt solution in PBS were added to each well, and the plates were incubated for further 16 h. Fluorescence was measured with a Synergy HT reader (BioTek) with an excitation wavelength of 530 nm and emission wavelength of 590 nm. For both assays, at least three independent experiments (or two in case of poor activity) were performed, each with triplicates per concentration level, and the 50 % inhibitory concentrations (IC50) relative to untreated controls were interpolated from concentration‐effect curves."}, "CH1/PA‐1 [6]": {"test_system": "CH1/PA‐1", "conditions": "CH1/PA‐1 multicellular spheroids, 96 h drug exposure", "method": "as §1, §2"}, "HCT‐116": {"test_system": "HCT‐116", "conditions": "HCT‐116 multicellular spheroids, 96 h drug exposure", "method": "as §1, §2"}, "CH1/PA‐1 [7]": {"test_system": "CH1/PA‐1", "assay": "Cell cycle distribution, flow cytometry with propidium iodide", "type": "cell-based, human", "conditions": "for Cell cycle distribution G1, % / Cell cycle distribution G2/M, % / Cell cycle distribution S, %: 24 h, mean ± SD; for Relative change in cell cycle distribution G1, % / Relative change in cell cycle distribution G2/M, % / Relative change in cell cycle distribution S, %: difference to untreated control; for decrease in G1 phase: CH1/PA‐1 cells", "outline": "(§3)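 CH1/PA-1 and SW480 cells were allowed to attach for 24 h, then exposed continuously to compounds for 24 h at 37 °C. Nuclei were stained overnight at 4 °C with propidium iodide (50 μg mL^−1) in Triton/citrate buffer. 5×10^3 cells were analysed by flow cytometry, with G1/S/G2/M fractions fitted by the Watson Pragmatic model.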"}, "SW480 [8]": {"test_system": "SW480", "assay": "Cell cycle distribution, flow cytometry with propidium iodide", "type": "cell-based, human", "conditions": "for Cell cycle distribution G1, % / Cell cycle distribution G2/M, % / Cell cycle distribution S, %: 24 h, mean ± SD; for Relative change in cell cycle distribution G1, % / Relative change in cell cycle distribution G2/M, % / Relative change in cell cycle distribution S, %: difference to untreated control", "outline": "as §3"}, "[9]": {"test_system": "human cancer cell lines CH1/PA‐1, SW480, A549", "conditions": "tested cancer cell lines", "description": "Cytotoxicity of the compounds in monolayer cultures was determined by the colorimetric MTT assay (MTT=3‐(4,5‐dimethyl‐2‐thiazolyl)‐2,5‐diphenyl‐2H‐tetrazolium bromide). 1×10^3 CH1/PA‐1, 2×10^3 SW480 and 3×10^3 A549 cells were seeded in 100 μL supplemented MEM per well into 96‐well flat‐bottom microculture plates. […] After 96 h, the drug‐containing medium was replaced with 100 μL of RPMI 1640/MTT mixture [6 parts of RPMI 1640 medium (supplemented with 10 % heat‐inactivated fetal bovine serum and 4 mM L‐glutamine), 1 part of MTT solution in phosphate‐buffered saline (5 mg mL^−1)]. After incubation for 4 h, the mixture was replaced with 150 μL DMSO per well to dissolve the formazan product formed by viable cells. Optical densities at 550 nm (and at a reference wavelength of 690 nm) were measured with a microplate reader (ELx808, Bio‐Tek)."}},
  "note": "Where two headings read alike, the source gives them in different places.",
  "data": [
    {"smiles": "Cc1c([O-])c(=S)ccn1Cc1ccccc1.Cc1ccc(C(C)C)cc1.[Cl-].[Ru+2]", "note": "[Compound 3 c, Chlorido[1‐benzyl‐2‐methyl‐3‐(oxo‐κO)‐pyridine‐4(1H)‐thionato‐κS](η^6‐p‐cymene)ruthenium(II)]", "values": [
      {"measurement": "IC50", "setting": "A549 [1]", "value": "1.3 ± 0.1", "unit": "µM"},
      {"measurement": "IC50", "setting": "CH1/PA‐1 [2]", "value": "1.04 ± 0.03", "unit": "µM"},
      {"measurement": "IC50", "setting": "SW480 [3]; SW480, MTT assay, exposure time 96 h, means ± SDs", "value": "3.1 ± 0.2", "unit": "µM"},
      {"measurement": "IC50", "setting": "SW480 [3]; SW480, as listed in Table 3", "value": "3.06 ± 0.2", "unit": "µM"},
      {"measurement": "φ0 (chromatographic lipophilicity index)", "setting": "[4]", "value": 6.04},
      {"measurement": "IC50", "setting": "A549 [5]", "value": "287 ± 3", "unit": "µM"},
      {"measurement": "IC50", "setting": "CH1/PA‐1 [6]", "value": "242 ± 11", "unit": "µM"},
      {"measurement": "IC50", "setting": "HCT‐116", "value": "211 ± 28", "unit": "µM"},
      {"measurement": "Cell cycle distribution G1, %", "setting": "CH1/PA‐1 [7]; CH1/PA-1, 2.5 µM", "value": "30 ± 1", "unit": "%"},
      {"measurement": "Cell cycle distribution G2/M, %", "setting": "CH1/PA‐1 [7]; CH1/PA-1, 2.5 µM", "value": "23 ± 6", "unit": "%"},
      {"measurement": "Cell cycle distribution S, %", "setting": "CH1/PA‐1 [7]; CH1/PA-1, 2.5 µM", "value": "47 ± 8", "unit": "%"},
      {"measurement": "Relative change in cell cycle distribution G1, %", "setting": "CH1/PA‐1 [7]; CH1/PA-1, 2.5 µM", "value": -10, "unit": "%"},
      {"measurement": "Relative change in cell cycle distribution G2/M, %", "setting": "CH1/PA‐1 [7]; CH1/PA-1, 2.5 µM", "value": -1, "unit": "%"},
      {"measurement": "Relative change in cell cycle distribution S, %", "setting": "CH1/PA‐1 [7]; CH1/PA-1, 2.5 µM", "value": 11, "unit": "%"},
      {"measurement": "Cell cycle distribution G1, %", "setting": "CH1/PA‐1 [7]; CH1/PA-1, 5 µM", "value": "27 ± 3", "unit": "%"},
      {"measurement": "Cell cycle distribution G2/M, %", "setting": "CH1/PA‐1 [7]; CH1/PA-1, 5 µM", "value": "30 ± 3", "unit": "%"},
      {"measurement": "Cell cycle distribution S, %", "setting": "CH1/PA‐1 [7]; CH1/PA-1, 5 µM", "value": "43 ± 3", "unit": "%"},
      {"measurement": "Relative change in cell cycle distribution G1, %", "setting": "CH1/PA‐1 [7]; CH1/PA-1, 5 µM", "value": -13, "unit": "%"},
      {"measurement": "Relative change in cell cycle distribution G2/M, %", "setting": "CH1/PA‐1 [7]; CH1/PA-1, 5 µM", "value": 6, "unit": "%"},
      {"measurement": "Relative change in cell cycle distribution S, %", "setting": "CH1/PA‐1 [7]; CH1/PA-1, 5 µM", "value": 7, "unit": "%"},
      {"measurement": "Cell cycle distribution G1, %", "setting": "CH1/PA‐1 [7]; CH1/PA-1, 10 µM", "value": "24 ± 6", "unit": "%"},
      {"measurement": "Cell cycle distribution G2/M, %", "setting": "CH1/PA‐1 [7]; CH1/PA-1, 10 µM", "value": "30 ± 7", "unit": "%"},
      {"measurement": "Cell cycle distribution S, %", "setting": "CH1/PA‐1 [7]; CH1/PA-1, 10 µM", "value": "47 ± 4", "unit": "%"},
      {"measurement": "Relative change in cell cycle distribution G1, %", "setting": "CH1/PA‐1 [7]; CH1/PA-1, 10 µM", "value": -16, "unit": "%"},
      {"measurement": "Relative change in cell cycle distribution G2/M, %", "setting": "CH1/PA‐1 [7]; CH1/PA-1, 10 µM", "value": 6, "unit": "%"},
      {"measurement": "Relative change in cell cycle distribution S, %", "setting": "CH1/PA‐1 [7]; CH1/PA-1, 10 µM", "value": 11, "unit": "%"},
      {"measurement": "decrease in G1 phase", "setting": "CH1/PA‐1 [7]; 2.5 μM", "value": 10, "unit": "%"},
      {"measurement": "decrease in G1 phase", "setting": "CH1/PA‐1 [7]; 10 μM", "value": "about 16%"},
      {"measurement": "Cell cycle distribution G1, %", "setting": "SW480 [8]; SW480, 2.5 µM", "value": "45 ± 3", "unit": "%"},
      {"measurement": "Cell cycle distribution G2/M, %", "setting": "SW480 [8]; SW480, 2.5 µM", "value": "17 ± 4", "unit": "%"},
      {"measurement": "Cell cycle distribution S, %", "setting": "SW480 [8]; SW480, 2.5 µM", "value": "38 ± 6", "unit": "%"},
      {"measurement": "Relative change in cell cycle distribution G1, %", "setting": "SW480 [8]; SW480, 2.5 µM", "value": -3, "unit": "%"},
      {"measurement": "Relative change in cell cycle distribution G2/M, %", "setting": "SW480 [8]; SW480, 2.5 µM", "value": -2, "unit": "%"},
      {"measurement": "Relative change in cell cycle distribution S, %", "setting": "SW480 [8]; SW480, 2.5 µM", "value": 5, "unit": "%"},
      {"measurement": "Cell cycle distribution G1, %", "setting": "SW480 [8]; SW480, 5 µM", "value": "44 ± 2", "unit": "%"},
      {"measurement": "Cell cycle distribution G2/M, %", "setting": "SW480 [8]; SW480, 5 µM", "value": "20 ± 3", "unit": "%"},
      {"measurement": "Cell cycle distribution S, %", "setting": "SW480 [8]; SW480, 5 µM", "value": "36 ± 0", "unit": "%"},
      {"measurement": "Relative change in cell cycle distribution G1, %", "setting": "SW480 [8]; SW480, 5 µM", "value": -4, "unit": "%"},
      {"measurement": "Relative change in cell cycle distribution G2/M, %", "setting": "SW480 [8]; SW480, 5 µM", "value": 1, "unit": "%"},
      {"measurement": "Relative change in cell cycle distribution S, %", "setting": "SW480 [8]; SW480, 5 µM", "value": 3, "unit": "%"},
      {"measurement": "Cell cycle distribution G1, %", "setting": "SW480 [8]; SW480, 10 µM", "value": "48 ± 7", "unit": "%"},
      {"measurement": "Cell cycle distribution G2/M, %", "setting": "SW480 [8]; SW480, 10 µM", "value": "21 ± 4", "unit": "%"},
      {"measurement": "Cell cycle distribution S, %", "setting": "SW480 [8]; SW480, 10 µM", "value": "32 ± 7", "unit": "%"},
      {"measurement": "Relative change in cell cycle distribution G1, %", "setting": "SW480 [8]; SW480, 10 µM", "value": 0, "unit": "%"},
      {"measurement": "Relative change in cell cycle distribution G2/M, %", "setting": "SW480 [8]; SW480, 10 µM", "value": 2, "unit": "%"},
      {"measurement": "Relative change in cell cycle distribution S, %", "setting": "SW480 [8]; SW480, 10 µM", "value": -1, "unit": "%"},
      {"measurement": "decrease in G1 phase", "setting": "SW480 [8]; SW480 cells, at applicable concentrations", "value": "< 9", "unit": "%"},
      {"measurement": "intracellular accumulation relative to 3 a, in words", "setting": "SW480 cells", "value": "seven times as high"},
      {"measurement": "Cellular accumulation", "setting": "SW480 cells; ICP‐MS, 2 h exposure, 50 μM", "value": "147±54", "unit": "fg/cell"},
      {"measurement": "IC50 values, in words", "setting": "[9]", "value": "low micromolar range"}
    ]}
  ]
}
